According to the supplement of paper PMC10307832:

Experiments:
Assay in all cases: relative viability (nuclei count vs DMSO), 5 days (fraction); higher = more cells survive
[1] = test system: A-427
Method in brief: (§1)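 Lung cancer cell lines in 1536-well plates got either a single drug or a fixed anchor-drug dose together with five library-drug doses (not always all listed) in √10 steps, by pin tool, on the day after seeding. Nuclei were counted after 5 days, and relative viability is the treated-to-vehicle ratio of nuclei counts. Values are medians of duplicate plates.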

[2] = test system: COR-L 105
Method in brief: as §1

[3] = test system: ChaGo-K-1
Method in brief: as §1

[4] = test system: EKVX
Method in brief: as §1

[5] = test system: EMC-BAC-2
Method in brief: as §1

[6] = test system: H3255
Method in brief: as §1

[7] = test system: HCC-366
Method in brief: as §1

[8] = test system: LK-2
Method in brief: as §1

[9] = test system: LOU-NH91
Method in brief: as §1

[10] = test system: NCI-H1563
Method in brief: as §1

[11] = test system: NCI-H1666
Method in brief: as §1

[12] = test system: NCI-H1734
Method in brief: as §1

[13] = test system: NCI-H1755
Method in brief: as §1

[14] = test system: NCI-H1944
Method in brief: as §1

[15] = test system: NCI-H1975
Method in brief: as §1

[16] = test system: NCI-H2170
Method in brief: as §1

[17] = test system: NCI-H23
Method in brief: as §1

[18] = test system: NCI-H441
Method in brief: as §1

[19] = test system: NCI-H520
Method in brief: as §1

[20] = test system: NCI-H596
Method in brief: as §1

[21] = test system: PC-3 [JPC-3]
Method in brief: as §1

[22] = test system: SK-MES-1
Method in brief: as §1

[23] = test system: SW 900
Method in brief: as §1

SMILES: C[C@@H]1CN(CC(=O)Nc2ccc3c(c2)Cc2cccc(-c4cc(=O)cc(N5CCOCC5)o4)c2S3)C[C@H](C)O1 + COc1cc2c(Oc3ccc(NC(=O)C4(C(=O)Nc5ccc(F)cc5)CC4)cc3F)ccnc2cc1OCCCN1CCOCC1 [Foretinib] (partner 0.25 µM)
- relative viability ([1]; first compound 0.04 µM): 1.05
- relative viability ([1]; first compound 0.1265 µM): 1.17
- relative viability ([1]; first compound 0.4 µM): 1.11
- relative viability ([1]; first compound 4 µM): 1.22
- relative viability ([2]; first compound 0.04 µM): 1.39
- relative viability ([2]; first compound 0.1265 µM): 0.971
- relative viability ([2]; first compound 0.4 µM): 1.17
- relative viability ([2]; first compound 4 µM): 0.701
- relative viability ([3]; first compound 0.04 µM): 0.793
- relative viability ([3]; first compound 0.1265 µM): 0.929
- relative viability ([3]; first compound 0.4 µM): 0.892
- relative viability ([3]; first compound 4 µM): 0.825
- relative viability ([4]; first compound 0.04 µM): 0.947
- relative viability ([4]; first compound 0.1265 µM): 1.16
- relative viability ([4]; first compound 0.4 µM): 0.927
- relative viability ([4]; first compound 4 µM): 0.76
- relative viability ([5]; first compound 0.04 µM): 1.08
- relative viability ([5]; first compound 0.1265 µM): 1.04
- relative viability ([5]; first compound 0.4 µM): 0.998
- relative viability ([5]; first compound 4 µM): 0.92
- relative viability ([6]; first compound 0.04 µM): 1.02
- relative viability ([6]; first compound 0.1265 µM): 0.837
- relative viability ([6]; first compound 0.4 µM): 0.677
- relative viability ([6]; first compound 4 µM): 0.783
- relative viability ([7]; first compound 0.04 µM): 0.922
- relative viability ([7]; first compound 0.1265 µM): 0.929
- relative viability ([7]; first compound 0.4 µM): 1.1
- relative viability ([7]; first compound 4 µM): 0.913
- relative viability ([8]; first compound 0.1265 µM): 1.27
- relative viability ([8]; first compound 0.4 µM): 1.16
- relative viability ([8]; first compound 4 µM): 1.47
- relative viability ([9]; first compound 0.04 µM): 1
- relative viability ([9]; first compound 0.1265 µM): 0.96
- relative viability ([9]; first compound 0.4 µM): 0.943
- relative viability ([9]; first compound 4 µM): 0.897
- relative viability ([10]; first compound 0.04 µM): 0.831
- relative viability ([10]; first compound 0.1265 µM): 0.894
- relative viability ([10]; first compound 0.4 µM): 0.908
- relative viability ([10]; first compound 4 µM): 0.788
- relative viability ([11]; first compound 0.04 µM): 0.952
- relative viability ([11]; first compound 0.1265 µM): 0.989
- relative viability ([11]; first compound 0.4 µM): 1.05
- relative viability ([11]; first compound 4 µM): 0.812
- relative viability ([12]; first compound 0.04 µM): 0.881
- relative viability ([12]; first compound 0.1265 µM): 0.851
- relative viability ([12]; first compound 0.4 µM): 0.789
- relative viability ([12]; first compound 4 µM): 0.976
- relative viability ([13]; first compound 0.04 µM): 0.914
- relative viability ([13]; first compound 0.1265 µM): 0.887
- relative viability ([13]; first compound 0.4 µM): 0.875
- relative viability ([13]; first compound 4 µM): 0.798
- relative viability ([14]; first compound 0.04 µM): 0.761
- relative viability ([14]; first compound 0.1265 µM): 0.888
- relative viability ([14]; first compound 0.4 µM): 0.926
- relative viability ([14]; first compound 4 µM): 0.912
- relative viability ([15]; first compound 0.04 µM): 0.978
- relative viability ([15]; first compound 0.1265 µM): 0.782
- relative viability ([15]; first compound 0.4 µM): 0.996
- relative viability ([15]; first compound 4 µM): 0.765
- relative viability ([16]; first compound 0.04 µM): 1.08
- relative viability ([16]; first compound 0.1265 µM): 0.97
- relative viability ([16]; first compound 0.4 µM): 0.648
- relative viability ([16]; first compound 4 µM): 1
- relative viability ([17]; first compound 0.04 µM): 0.95
- relative viability ([17]; first compound 0.1265 µM): 0.85
- relative viability ([17]; first compound 0.4 µM): 0.945
- relative viability ([17]; first compound 4 µM): 0.844
- relative viability ([18]; first compound 0.04 µM): 0.925
- relative viability ([18]; first compound 0.1265 µM): 0.978
- relative viability ([18]; first compound 0.4 µM): 0.911
- relative viability ([18]; first compound 4 µM): 0.934
- relative viability ([19]; first compound 0.04 µM): 0.86
- relative viability ([19]; first compound 0.1265 µM): 0.88
- relative viability ([19]; first compound 0.4 µM): 0.527
- relative viability ([19]; first compound 4 µM): 0.613
- relative viability ([20]; first compound 0.04 µM): 0.926
- relative viability ([20]; first compound 0.1265 µM): 0.835
- relative viability ([20]; first compound 0.4 µM): 0.909
- relative viability ([20]; first compound 4 µM): 0.87
- relative viability ([21]; first compound 0.04 µM): 1.02
- relative viability ([21]; first compound 0.1265 µM): 0.998
- relative viability ([21]; first compound 0.4 µM): 0.93
- relative viability ([21]; first compound 4 µM): 0.884
- relative viability ([22]; first compound 0.04 µM): 1.15
- relative viability ([22]; first compound 0.1265 µM): 0.822
- relative viability ([22]; first compound 0.4 µM): 0.76
- relative viability ([22]; first compound 4 µM): 0.746
- relative viability ([23]; first compound 0.04 µM): 0.809
- relative viability ([23]; first compound 0.1265 µM): 0.836
- relative viability ([23]; first compound 0.4 µM): 0.816
- relative viability ([23]; first compound 4 µM): 0.782
